# Test results from patent US20210252023A1, “METHODS AND COMPOSITIONS FOR TREATING AND/OR PREVENTING THE PROGRESSION AND/OR ONSET OF AGE-RELATED NEURODEGENERATION” (Enterin, Inc., priority 2018, published 2021).
# Entries after “also recorded” stand apart in the source; their conditions may differ.
# How the values were obtained:
# [1] = Neuroregeneration in treated adult mouse (cell number in brain areas); type: in vivo
# Excerpt: The hypothalamus is of particular interest because it happens to be the site of localization of Aminosterol 1436 in the brain.
# HIV = details: tissue culture; U.S. Pat. No. 5,763,430; cited from earlier work
# [2] = Brain distribution of radioactive Aminosterol 1436 after IV or ICV administration (FIG. 1); type: in vivo; details: radioactive compound, rat, peripheral vein (IV) or 3rd ventricle (ICV)
# Excerpt: The exact mechanism by which Aminosterol 1436 achieves its effect on preventing, delaying onset, and/or treating neurodegeneration, delaying maturity, retarding aging, and increasing potential lifespan is not known. However, without being bound by theory, Applicant theorizes that the effect of Aminosterol 1436 is likely in part due to the drug's effects on the hypothalamus within the brain of the animal.
# [3] = Dose response of delay in growth of BDF1 mice (Example 1, FIG. 2); type: in vivo, B6D2F1 (BDF1) mice; details: 5 and 10 mg/kg IV; data not shown
# Description: An experiment was conducted to explore the dose response to a delay in growth of B6D2F1 (BDF1) mice to Aminsoterol 1436. 30 day old male BDF1 mice received either vehicle or Aminosterol 1436 intraveneously (IV) at 5 mg/kg or 10 mg/kg (n=15 for each treatment arm) every 3 days until 51 days of age. The Aminosterol 1436 was administered as a aqueous solution in water. BDF1 mice are available from Charles River Laboratories. The animals were fed standard lab chow, offered ad libitum. The animals were weighed and body length measured every 5 days. […] However, while the control animals reached maturity at 120 days, the animals that received 5 mg/kg of Aminosterol 1436 reached maturity at 150 days, corresponding to a 25% delay in reaching maturity, as measured by end weight. […] Most importantly, both treated and untreated animals reached normal adult dimensions, albeit at different rates.
smiles,measurement,setting,value
"CC(C)[C@@H](CC[C@@H](C)[C@H]1CC[C@H]2[C@@H]3[C@H](O)C[C@H]4C[C@@H](NCCCNCCCCNCCCN)CC[C@]4(C)[C@H]3CC[C@]12C)OS(=O)(=O)O [Aminosterol 1436, trodusquemine]","neuroregeneration (number of cells in subependymal zone, olfactory bulb, hypothalamus, thalamus)",[1],stimulates neuroregeneration
same,antiviral activity against HIV,HIV,exhibits antiviral activity against HIV in tissue culture
same,accumulation in the brain,[2],"accumulation of Aminosterol 1436 within the centers of the brain that control growth, maturation, and senescence; also recorded: accumulates within the centers of the brain that control growth, maturation and senescence"
same,linear growth,[3],slowed to a corresponding degree
